According to US20120183579A1, “COMPOUNDS FOR INFLAMMATION AND IMMUNE-RELATED USES” (Synta Pharmaceuticals Corp., priority 2008, published 2012):

Key:
IL-2 = test: Inhibition of IL-2 production (Jurkat cells activated with PHA, ELISA); type: cell-based; settings: Homo sapiens, Jurkat, Jurkat/PHA/1% FBS; activity class
Protocol: Jurkat cells were placed in a 96 well plate (0.5 million cells per well in 1% FBS medium), and then a test compound of this invention was added at different concentrations. After 10 minutes, the cells were activated with PHA (final concentration 2.5 μg/mL) and incubated for 20 hours at 37° C. under 5% CO2. The final volume was 200 μL. Following incubation, the cells were centrifuged, and the supernatants collected and stored at −70° C. prior to assaying for IL-2 production. A commercial ELISA kit (IL-2 Eli-pair, Diaclone Research, Besancon, France) was used to detect production of IL-2, from which dose response curves were obtained. The IC50 value was calculated as the concentration at which 50% of maximum IL-2 production after stimulation was inhibited versus a non-stimulation control.

CRACM1/STIM1-CHOK1 = target: T1, CRACM1/STIM1-CHOK1 (Homo sapiens, UniProt Q96D31); test: Patch clamp inhibition of ICRAC current in CRACM1/STIM1-CHOK1 cells; type: cell-based; settings: at 500 nM, activity class
T1 construct: Full length human Stim1, CracM1, CracM2 and CracM3 cDNA; Stim1 induced with doxycycline
T1 sequence (Q96D31 whole entry): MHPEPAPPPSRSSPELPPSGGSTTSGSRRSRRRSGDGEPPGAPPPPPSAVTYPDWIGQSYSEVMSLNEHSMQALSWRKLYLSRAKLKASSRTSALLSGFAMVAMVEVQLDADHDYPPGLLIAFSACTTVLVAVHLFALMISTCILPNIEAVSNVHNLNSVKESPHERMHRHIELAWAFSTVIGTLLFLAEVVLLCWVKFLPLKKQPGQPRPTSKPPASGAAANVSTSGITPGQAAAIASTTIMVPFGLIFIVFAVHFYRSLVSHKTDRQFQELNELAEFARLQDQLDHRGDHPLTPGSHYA
Protocol: Manual patch clamp experiments are conducted in the tight-seal whole-cell configuration at room temperature (21-25° C.). Patch pipettes are fashioned from borosilicate glass capillary tubes and have resistances between 2-4 MO after filling with standard intracellular solution. High resolution current recordings are acquired with a computer-based patch clamp amplifier system (EPC-10, HEKA, Lambrecht, Germany). All voltages are corrected for a liquid junction potential of 10 mV between external and internal solutions with glutamate as the intracellular anion. Currents are filtered at 2.9 kHz and digitized at 10 μs intervals. Capacitive currents and series resistance are determined and corrected before each voltage ramp using the automatic capacitance compensation of the EPC-10.
In general, a whole cell patch clamp method is used to examine the effects of a compound of the invention on a channel(s) that mediates ICRAC. In such experiments, a baseline ICRAC measurement is established within the first 70 voltage ramps, or 140 seconds, for a patched cell. Then the cells are perfused with the compound to be tested and the effect of the compound on ICRAC is measured for at least an additional 440 to 500 seconds. A compound that modulates ICRAC (e.g., inhibits) is a compound that is useful in the invention for modulating CRAC ion channel activity.
Each compound is diluted from a 10 mM stock in series using DMSO. The final DMSO concentration is always kept at 0.1%.
ICRAC currents are measured using 50 msec voltage ramps between −100 mV to +100 mV. The voltage ramps are stimulated every 2 seconds for the first 70 sweeps, then every 5 seconds for the remainder of the experiment. The membrane potential is held at 0 mV between the test ramps. In a typical experiment, the peak inward currents will develop within 50-100 seconds. Once the ICRAC current is stabilized, the cells are perfused with a test compound in the extracellular solution for at least an additional 500 seconds.
Off-line analysis with the Heka PatchMaster software is used to separate the ICRAC membrane current from the cells basal background currents. In a typical recording, InsP3 stimulated ICRAC currents begin to develop in 6 to 12 seconds after whole cell is established. Therefore, the first 1-4 voltage ramps represent the basal membrane currents in the absence of ICRAC and the average value is subtracted from all subsequent traces. The current value at −80 mV for each ramp trace is then measured and plotted against time. The resulting current versus time data is exported into a Microsoft Excel spreadsheet. The % ICRAC inhibition in each cell is calculated by comparing the amount of current just prior to the compound perfusion to the amount of current after the cells has been perfused with the compound for 440-500 seconds. The IC50 value and Hill coefficient for each compound is estimated by fitting all the individual data points to a single-site Hill equation.
TREx™-CHO cells were transfected with human Stim1 (recombinant DNA in pcDNA4/TO/myc-His™ A with a myc epitope tag in the N-terminal) and either CracM1, CracM2 or CracM3 (recombinant DNA in pcDNA 3.1 with a HA epitope tag in the N-terminal). Stably expressing cells were selected by growing the transfected cells in antibiotics for two to three weeks. Individual cell clones were isolated via serial dilution. […]

Row | SMILES | IC50 (IL-2) [nM] | inhibition at 0.5 µM (CRACM1/STIM1-CHOK1) [%]
1 | CC1=C(c2ccc(NC(=O)c3cccc(F)c3F)cc2)CN(c2nccs2)CC1 [Compound 11, 2,3-difluoro-N-(4-(4-methyl-1-(thiazol-2-yl)-1,2,5,6-tetrahydropyridin-3-yl)phenyl)benzamide] | < 50 | 70 to 100
2 | CC1=C(c2ccc(NC(=O)c3ccncc3C)cc2)CN(c2nccnc2Cl)CC1 [Compound 14, N-(4-(1-(3-chloropyrazin-2-yl)-4-methyl-1,2,5,6-tetrahydropyridin-3-yl)phenyl)-3-methylisonicotinamide] | < 50 | 50 to 70
3 | CC1=C(c2ccc(NC(=O)c3ccncc3F)cc2)CN(c2nccnc2Cl)CC1 [Compound 15, N-(4-(1-(3-chloropyrazin-2-yl)-4-methyl-1,2,5,6-tetrahydropyridin-3-yl)phenyl)-3-fluoroisonicotinamide] | < 50 | 50 to 70

More lines, now with the values ahead:

Row | IC50 (IL-2) [nM] | inhibition at 0.5 µM (CRACM1/STIM1-CHOK1) [%] | SMILES
4 | 50 to 100 | 70 to 100 | CC1=C(c2cnc(NC(=O)c3c(F)cccc3F)cn2)CN(c2nc(C)cs2)CC1 [Compound 1, 2,6-difluoro-N-(5-(4-methyl-1-(4-methylthiazol-2-yl)-1,2,5,6-tetrahydropyridin-3-yl)pyrazin-2-yl)benzamide]
5 | > 100 | 70 to 100 | CC1=C(c2cnc(NC(=O)c3c(F)cccc3F)cn2)CN(S(=O)(=O)N(C)C)CC1 [Compound 2]
